From patent US6492365B1, “Microsomal triglyceride transfer protein” (Bristol-Myers Squibb Company, priority 1992, dated 2002)
Counter-ions that a name gives are not always drawn.

Key:
[1] = system: TG secretion from HepG2 cells; assay: TG secretion from HepG2 cells (3H-glycerol labelling, extraction, TLC); type: cell-based; settings: Homo sapiens, 1.25 μM-20 μM, 3H-glycerol labelling for two hours, read-out: IC50 for inhibition of TG secretion
Protocol: HepG2 cells were treated with Compound A at the indicated doses for […], the last two hours of which were in the presence of 5 μCi/mL 3H-glycerol. The concentration of radiolabelled triglycerides in the cell culture media was measured by quantitative extraction, followed by thin layer chromatography analysis and normalization to total cell protein. The data shown are expressed as a percentage of the control (DMSO only).
HepG2 cells were subcultured into 6-well dishes and allowed to come to confluency at least 24 hours before drug treatment. Prior to addition of the drug, culture media were removed, cells washed once with PBS, and 1 mL of fresh medium (RPMI 1640+10% FBS) was added quatitatively. […]
Total lipids were extracted from the media and analyzed as follows. […] Raw data was normalized to cell protein and expressed as percent of DMSO control.
HepG2 cells were treated with doses of compound A ranging from 1.25 μM-20 μM under conditions identical to those utilized for the apoB, apoAl and HSA secretion experiment. The intracellular pool of TG was radiolabelled for two hours with 3H-glycerol in the presence of vehicle or varying doses of compound A. The accumulation of radiolabelled TG in the medium was measured by quantitative extraction, followed by thin layer chromatography analysis and normalization to total cell protein. […]

bovine MTP = biological target: T1, bovine MTP (Bos taurus, UniProt P55156); assay: MTP-catalyzed transport of 14C-PC from donor SUV to acceptor SUV; type: biochemical; settings: at concentrations of inhibitor which decreased TG and CE transfer more than 80%
T1 construct: with about 50-200 ng purified MTP in the well of a 96-well plate; from tissue; host or cells: bovine liver
T1 sequence (P55156 12-887): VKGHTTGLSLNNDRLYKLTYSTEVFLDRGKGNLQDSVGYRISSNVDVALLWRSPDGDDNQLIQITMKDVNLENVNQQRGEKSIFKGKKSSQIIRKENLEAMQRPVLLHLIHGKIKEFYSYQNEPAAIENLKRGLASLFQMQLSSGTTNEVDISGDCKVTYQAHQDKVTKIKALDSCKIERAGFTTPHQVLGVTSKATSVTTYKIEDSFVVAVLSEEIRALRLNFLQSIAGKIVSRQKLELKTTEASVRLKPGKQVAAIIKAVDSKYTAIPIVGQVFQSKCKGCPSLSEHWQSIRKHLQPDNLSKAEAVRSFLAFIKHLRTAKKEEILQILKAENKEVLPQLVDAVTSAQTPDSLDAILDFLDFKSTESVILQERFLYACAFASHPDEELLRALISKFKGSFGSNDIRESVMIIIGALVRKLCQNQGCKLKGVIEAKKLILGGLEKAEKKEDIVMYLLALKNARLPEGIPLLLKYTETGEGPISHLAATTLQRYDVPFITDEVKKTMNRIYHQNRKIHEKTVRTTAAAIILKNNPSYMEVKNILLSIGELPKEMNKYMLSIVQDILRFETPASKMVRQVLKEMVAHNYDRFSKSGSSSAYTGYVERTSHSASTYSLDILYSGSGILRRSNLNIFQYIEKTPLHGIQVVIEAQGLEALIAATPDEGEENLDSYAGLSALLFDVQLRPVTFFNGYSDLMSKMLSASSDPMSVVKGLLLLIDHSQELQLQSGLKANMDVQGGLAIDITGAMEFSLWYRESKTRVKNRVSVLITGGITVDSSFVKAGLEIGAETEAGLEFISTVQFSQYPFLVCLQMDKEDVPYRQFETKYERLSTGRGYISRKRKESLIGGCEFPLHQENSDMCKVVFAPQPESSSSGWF
T1 sequence (P05307 21-510 partner): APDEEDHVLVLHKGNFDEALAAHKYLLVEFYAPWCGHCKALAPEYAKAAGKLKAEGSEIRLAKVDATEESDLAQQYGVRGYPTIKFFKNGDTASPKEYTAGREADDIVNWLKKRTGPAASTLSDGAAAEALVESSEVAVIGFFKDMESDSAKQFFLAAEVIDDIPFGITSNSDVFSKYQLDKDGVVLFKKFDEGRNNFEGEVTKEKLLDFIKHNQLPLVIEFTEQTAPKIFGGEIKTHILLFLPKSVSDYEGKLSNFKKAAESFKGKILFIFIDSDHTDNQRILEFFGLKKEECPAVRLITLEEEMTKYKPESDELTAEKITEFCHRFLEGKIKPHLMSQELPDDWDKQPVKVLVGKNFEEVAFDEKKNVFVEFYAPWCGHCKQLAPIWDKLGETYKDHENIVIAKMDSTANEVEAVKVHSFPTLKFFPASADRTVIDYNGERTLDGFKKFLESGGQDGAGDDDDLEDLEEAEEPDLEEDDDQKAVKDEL
Protocol: To measure the effect of compound A on bovine MTP-catalyzed transport of CE or PC between membranes, the lipid transfer assay which measures TG transfer between SUV was modified. The composition of the donor vesicles was the same, except 0.25 mol% ^14C-CE or ^14C-PC replaced the labeled TG. The composition of the acceptor vesicles were the same, except labeled PC and unlabeled TG were not included. Following precipitation of donor vesicles, the percentage of lipid transfer was calculated by comparing the ^14C-CE or -PC in the acceptor vesicles in the supernatant following a transfer reaction to the total ^14C-CE or -PC in the assay. The labeled lipid in the supernatant in the absence of MTP was subtracted from the labeled lipid in the presence MTP to calculate the MTP-catalyzed lipid transfer from donor SUV to acceptor SUV. The remainder of the assay was essentially as described previously.

IC50 [1]: ~2000 nM | PC transfer inhibited (bovine MTP): Approximately 40%
Compound: O=C1c2ccccc2CN1C1CCN(CCC(c2ccccc2)c2ccccc2)CC1 [compound A, 2-[1-(3,3-diphenylpropyl)-4-piperdinyl]-2,3-dihydro-3-oxo-1H-isoindole hydrochloride]
